Measured values reported in ChEMBL document CHEMBL3991601, “The target landscape of clinical kinase drugs” (Science, 2017).
One block for each compound: values may come before it. Active and inactive are the calls of the source. For most assays here, no stated cut-off is given here; in the data, actives have a measured Kd and inactives only a lower limit.

Assays:
[1] = molecular target: Tyrosine-protein kinase ABL2 (Homo sapiens, UniProt P42684)
[2] = molecular target: T1, Adenine phosphoribosyltransferase (Homo sapiens, UniProt P07741)
T1 sequence (P07741 whole entry): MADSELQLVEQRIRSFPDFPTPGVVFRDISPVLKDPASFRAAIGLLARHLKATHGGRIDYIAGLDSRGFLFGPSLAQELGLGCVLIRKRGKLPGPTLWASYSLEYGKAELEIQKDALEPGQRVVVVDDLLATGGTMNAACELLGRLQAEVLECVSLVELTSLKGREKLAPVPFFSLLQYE

[3] = molecular target: Ephrin type-A receptor 2 (Homo sapiens, UniProt P29317)
Ephrin type-A receptor 2, sequence (P29317 whole entry): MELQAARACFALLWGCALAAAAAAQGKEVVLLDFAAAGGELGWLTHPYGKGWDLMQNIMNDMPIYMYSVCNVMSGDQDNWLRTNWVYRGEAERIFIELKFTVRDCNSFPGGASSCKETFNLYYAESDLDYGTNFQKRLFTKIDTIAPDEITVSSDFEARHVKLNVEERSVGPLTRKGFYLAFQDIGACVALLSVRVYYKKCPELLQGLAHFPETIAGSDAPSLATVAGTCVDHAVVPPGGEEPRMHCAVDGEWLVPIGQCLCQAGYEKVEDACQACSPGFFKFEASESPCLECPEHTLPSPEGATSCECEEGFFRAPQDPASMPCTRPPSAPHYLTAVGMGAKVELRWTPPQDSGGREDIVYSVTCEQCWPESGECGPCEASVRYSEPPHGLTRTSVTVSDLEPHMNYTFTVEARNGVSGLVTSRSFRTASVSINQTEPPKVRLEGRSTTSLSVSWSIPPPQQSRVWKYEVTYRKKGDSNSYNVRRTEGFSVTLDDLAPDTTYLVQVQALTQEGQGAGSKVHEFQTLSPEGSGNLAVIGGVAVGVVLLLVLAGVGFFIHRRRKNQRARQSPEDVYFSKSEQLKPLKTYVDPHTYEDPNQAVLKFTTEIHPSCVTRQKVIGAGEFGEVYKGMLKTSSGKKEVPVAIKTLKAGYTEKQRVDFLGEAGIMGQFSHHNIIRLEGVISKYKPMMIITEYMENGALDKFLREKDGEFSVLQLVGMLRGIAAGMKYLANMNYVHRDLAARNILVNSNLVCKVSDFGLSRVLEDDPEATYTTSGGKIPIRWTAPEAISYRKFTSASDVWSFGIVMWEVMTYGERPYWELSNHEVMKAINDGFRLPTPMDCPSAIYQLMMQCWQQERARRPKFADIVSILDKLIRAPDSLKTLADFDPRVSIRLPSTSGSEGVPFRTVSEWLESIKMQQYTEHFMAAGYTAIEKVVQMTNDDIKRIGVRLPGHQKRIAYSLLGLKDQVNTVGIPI

[4] = molecular target: T2, Serine/threonine-protein kinase ICK (Homo sapiens, UniProt Q9UPZ9)
T2 sequence (Q9UPZ9 whole entry): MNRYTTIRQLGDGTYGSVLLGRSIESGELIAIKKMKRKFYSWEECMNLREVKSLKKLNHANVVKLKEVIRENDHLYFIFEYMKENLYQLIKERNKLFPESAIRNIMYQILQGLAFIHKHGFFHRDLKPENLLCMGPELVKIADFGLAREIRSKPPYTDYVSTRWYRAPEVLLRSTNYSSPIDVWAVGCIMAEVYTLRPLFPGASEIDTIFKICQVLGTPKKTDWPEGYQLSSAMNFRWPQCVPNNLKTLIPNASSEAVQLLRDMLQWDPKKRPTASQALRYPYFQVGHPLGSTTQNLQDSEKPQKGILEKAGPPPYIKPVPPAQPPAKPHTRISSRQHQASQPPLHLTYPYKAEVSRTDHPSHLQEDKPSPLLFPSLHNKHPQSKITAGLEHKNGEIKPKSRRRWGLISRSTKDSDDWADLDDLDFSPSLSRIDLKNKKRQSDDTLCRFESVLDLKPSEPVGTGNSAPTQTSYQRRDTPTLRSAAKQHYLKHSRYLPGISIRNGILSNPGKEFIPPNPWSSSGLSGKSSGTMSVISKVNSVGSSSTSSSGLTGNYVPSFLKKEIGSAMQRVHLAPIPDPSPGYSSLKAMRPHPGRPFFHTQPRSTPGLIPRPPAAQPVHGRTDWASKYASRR

[5] = molecular target: T3, Interleukin-1 receptor-associated kinase 3 (Homo sapiens, UniProt Q9Y616)
T3 sequence (Q9Y616 whole entry): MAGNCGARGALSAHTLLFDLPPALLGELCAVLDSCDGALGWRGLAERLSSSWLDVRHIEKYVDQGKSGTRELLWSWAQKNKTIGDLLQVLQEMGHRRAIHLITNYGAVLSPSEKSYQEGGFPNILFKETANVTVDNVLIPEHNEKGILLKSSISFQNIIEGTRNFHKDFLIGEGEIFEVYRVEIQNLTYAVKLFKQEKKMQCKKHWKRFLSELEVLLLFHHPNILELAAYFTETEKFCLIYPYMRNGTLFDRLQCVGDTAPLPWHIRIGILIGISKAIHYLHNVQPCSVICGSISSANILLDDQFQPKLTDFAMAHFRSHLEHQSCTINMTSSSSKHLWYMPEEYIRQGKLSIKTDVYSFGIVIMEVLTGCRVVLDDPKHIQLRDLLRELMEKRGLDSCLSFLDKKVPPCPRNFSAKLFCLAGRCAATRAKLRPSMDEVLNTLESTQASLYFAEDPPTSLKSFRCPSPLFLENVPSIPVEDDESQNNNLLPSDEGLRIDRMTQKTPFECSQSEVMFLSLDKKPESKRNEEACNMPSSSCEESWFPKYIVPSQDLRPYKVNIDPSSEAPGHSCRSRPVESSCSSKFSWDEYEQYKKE

[6] = molecular target: Obg-like ATPase 1 (Homo sapiens, UniProt Q9NTK5)
Obg-like ATPase 1, sequence (Q9NTK5 whole entry, looked up): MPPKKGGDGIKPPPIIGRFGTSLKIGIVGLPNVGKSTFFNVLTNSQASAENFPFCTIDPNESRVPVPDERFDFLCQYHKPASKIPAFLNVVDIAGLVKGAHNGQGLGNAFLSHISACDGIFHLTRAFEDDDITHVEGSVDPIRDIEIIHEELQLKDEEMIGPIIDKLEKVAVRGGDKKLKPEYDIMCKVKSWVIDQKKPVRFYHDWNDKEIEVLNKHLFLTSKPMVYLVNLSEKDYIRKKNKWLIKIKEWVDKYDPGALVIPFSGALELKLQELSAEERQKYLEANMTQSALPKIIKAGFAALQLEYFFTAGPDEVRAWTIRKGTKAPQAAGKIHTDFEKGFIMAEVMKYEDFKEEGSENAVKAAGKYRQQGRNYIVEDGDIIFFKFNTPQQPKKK

[7] = molecular target: T4, Serine/threonine-protein kinase D2 (Homo sapiens, UniProt Q9BZL6)
T4 sequence (Q9BZL6 whole entry): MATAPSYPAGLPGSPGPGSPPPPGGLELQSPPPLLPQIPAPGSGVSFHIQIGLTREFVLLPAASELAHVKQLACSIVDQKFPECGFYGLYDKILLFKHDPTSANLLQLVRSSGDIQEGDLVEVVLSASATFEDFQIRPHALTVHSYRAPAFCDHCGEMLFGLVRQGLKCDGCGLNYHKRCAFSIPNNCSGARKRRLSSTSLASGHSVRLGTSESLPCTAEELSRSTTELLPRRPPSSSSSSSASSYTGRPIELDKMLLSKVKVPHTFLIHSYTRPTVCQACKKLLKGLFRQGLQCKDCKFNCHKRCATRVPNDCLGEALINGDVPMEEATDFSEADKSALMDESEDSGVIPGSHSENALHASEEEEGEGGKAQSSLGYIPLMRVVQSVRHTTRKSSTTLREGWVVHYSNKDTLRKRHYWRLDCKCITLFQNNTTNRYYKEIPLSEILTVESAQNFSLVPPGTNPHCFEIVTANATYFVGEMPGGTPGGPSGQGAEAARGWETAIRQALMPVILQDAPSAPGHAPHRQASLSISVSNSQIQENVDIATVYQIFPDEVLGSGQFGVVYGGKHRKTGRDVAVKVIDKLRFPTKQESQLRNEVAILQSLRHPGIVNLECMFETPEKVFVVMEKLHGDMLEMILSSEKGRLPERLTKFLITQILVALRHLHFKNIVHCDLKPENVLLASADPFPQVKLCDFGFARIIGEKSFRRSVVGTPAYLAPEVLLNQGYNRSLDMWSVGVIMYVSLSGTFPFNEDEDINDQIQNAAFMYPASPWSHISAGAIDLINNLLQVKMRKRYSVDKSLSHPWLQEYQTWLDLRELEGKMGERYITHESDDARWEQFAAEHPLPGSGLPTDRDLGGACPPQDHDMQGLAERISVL

[8] = molecular target: Ras-related protein Rab-6A (Homo sapiens, UniProt P20340)
Ras-related protein Rab-6A, sequence (P20340 whole entry): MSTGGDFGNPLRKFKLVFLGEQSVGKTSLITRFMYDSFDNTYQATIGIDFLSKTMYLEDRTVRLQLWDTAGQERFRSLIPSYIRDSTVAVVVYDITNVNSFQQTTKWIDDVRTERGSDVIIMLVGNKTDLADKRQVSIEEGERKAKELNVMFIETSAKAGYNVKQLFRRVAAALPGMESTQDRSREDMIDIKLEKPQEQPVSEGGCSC

[9] = molecular target: T5, ADP/ATP translocase 3 (Homo sapiens, UniProt P12236)
T5 sequence (P12236 whole entry): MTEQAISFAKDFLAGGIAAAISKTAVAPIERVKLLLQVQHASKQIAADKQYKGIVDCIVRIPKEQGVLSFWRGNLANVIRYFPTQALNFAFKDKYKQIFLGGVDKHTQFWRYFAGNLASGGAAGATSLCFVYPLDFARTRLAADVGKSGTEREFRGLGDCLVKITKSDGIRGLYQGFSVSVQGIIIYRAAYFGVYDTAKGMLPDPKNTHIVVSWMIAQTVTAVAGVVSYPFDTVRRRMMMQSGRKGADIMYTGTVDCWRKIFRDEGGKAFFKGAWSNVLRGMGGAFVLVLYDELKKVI

Tyrosine-protein kinase ABL2, sequence (P42684 whole entry): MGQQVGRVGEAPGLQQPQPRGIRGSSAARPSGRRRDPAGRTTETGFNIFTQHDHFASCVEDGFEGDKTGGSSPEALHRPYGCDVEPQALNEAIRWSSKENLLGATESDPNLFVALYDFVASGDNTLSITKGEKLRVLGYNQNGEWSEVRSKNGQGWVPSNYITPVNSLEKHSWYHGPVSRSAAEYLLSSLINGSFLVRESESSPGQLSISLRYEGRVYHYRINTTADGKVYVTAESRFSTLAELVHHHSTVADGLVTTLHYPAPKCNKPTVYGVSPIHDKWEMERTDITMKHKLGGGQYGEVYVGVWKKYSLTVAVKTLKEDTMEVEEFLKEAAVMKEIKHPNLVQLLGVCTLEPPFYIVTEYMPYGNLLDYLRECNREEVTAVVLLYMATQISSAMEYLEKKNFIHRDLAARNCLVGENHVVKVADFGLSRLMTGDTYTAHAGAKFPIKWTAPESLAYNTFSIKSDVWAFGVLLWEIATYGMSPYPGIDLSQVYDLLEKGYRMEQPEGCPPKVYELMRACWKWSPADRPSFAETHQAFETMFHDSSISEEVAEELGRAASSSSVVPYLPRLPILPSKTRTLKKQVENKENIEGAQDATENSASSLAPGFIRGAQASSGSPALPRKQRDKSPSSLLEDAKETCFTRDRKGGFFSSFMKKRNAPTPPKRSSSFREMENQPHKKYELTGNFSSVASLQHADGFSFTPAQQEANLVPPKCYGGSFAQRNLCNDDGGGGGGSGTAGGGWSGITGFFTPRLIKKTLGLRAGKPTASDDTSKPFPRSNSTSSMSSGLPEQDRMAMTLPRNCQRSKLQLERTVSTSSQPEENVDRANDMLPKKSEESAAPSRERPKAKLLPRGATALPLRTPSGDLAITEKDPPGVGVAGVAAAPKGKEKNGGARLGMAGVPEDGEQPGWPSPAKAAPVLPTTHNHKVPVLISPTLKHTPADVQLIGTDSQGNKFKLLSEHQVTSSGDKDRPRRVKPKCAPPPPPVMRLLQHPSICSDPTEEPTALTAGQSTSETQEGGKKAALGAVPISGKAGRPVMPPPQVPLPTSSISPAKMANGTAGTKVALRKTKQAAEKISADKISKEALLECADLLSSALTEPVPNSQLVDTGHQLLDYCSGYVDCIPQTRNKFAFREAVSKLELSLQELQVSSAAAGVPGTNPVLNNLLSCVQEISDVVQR

SMILES: Cn1c(=O)n(-c2ccc(C(C)(C)C#N)cc2)c2c3cc(-c4cnc5ccccc5c4)ccc3ncc21 [DACTOLISIB]
Kd [1]: > 30 µM (inactive)
Kd [2]: > 30 µM (inactive)
Kd [3]: > 30 µM (inactive)
Kd [4]: > 30 µM (inactive)
Kd [5]: > 30 µM (inactive)
Kd [6]: > 30 µM (inactive)
Kd [7]: > 30 µM (inactive)
Kd [8]: > 30 µM (inactive)
Kd [9]: > 30 µM (inactive)

SMILES: CC1(COc2ccc3c(c2)ncn3-c2ccc3cccc(N4CCC(N)CC4)c3n2)COC1 [CRENOLANIB]
Kd [1]: > 30 µM (inactive)
Kd [2]: 0.029 µM
Kd [3]: > 30 µM (inactive)
Kd [4]: > 30 µM (inactive)
Kd [5]: 1.51 µM (active)
Kd [6]: 0.007 µM
Kd [7]: > 30 µM (inactive)
Kd [8]: > 30 µM (inactive)
Kd [9]: > 30 µM (inactive)

SMILES: COc1cc(F)c(F)c(Nc2ccc(I)cc2F)c1NS(=O)(=O)C1(C[C@H](O)CO)CC1 [REFAMETINIB]
Kd [1]: > 30 µM (inactive)
Kd [2]: > 30 µM (inactive)
Kd [3]: > 30 µM (inactive)
Kd [4]: > 30 µM (inactive)
Kd [5]: > 30 µM (inactive)
Kd [6]: > 30 µM (inactive)
Kd [7]: > 30 µM (inactive)
Kd [8]: > 30 µM (inactive)
Kd [9]: > 30 µM (inactive)

SMILES: CNC(=O)c1ccc(Nc2ncc(C(F)(F)F)c(NCc3nccnc3N(C)S(C)(=O)=O)n2)cc1 [DEFACTINIB]
Kd [1]: > 30 µM (inactive)
Kd [2]: > 30 µM (inactive)
Kd [3]: > 30 µM (inactive)
Kd [4]: > 30 µM (inactive)
Kd [5]: > 30 µM (inactive)
Kd [6]: > 30 µM (inactive)
Kd [7]: > 30 µM (inactive)
Kd [8]: > 30 µM (inactive)
Kd [9]: > 30 µM (inactive)

SMILES: c1cc(OCCN2CCCCC2)cc(-c2n[nH]c3ccc(-c4nc[nH]n4)cc23)c1 [CC-401]
Kd [1]: > 30 µM (inactive)
Kd [2]: > 30 µM (inactive)
Kd [3]: > 30 µM (inactive)
Kd [4]: > 30 µM (inactive)
Kd [5]: > 30 µM (inactive)
Kd [6]: > 30 µM (inactive)
Kd [7]: 0.056 µM (active)
Kd [8]: > 30 µM (inactive)
Kd [9]: > 30 µM (inactive)

SMILES: C=CC(=O)Nc1cc(Nc2nccc(-c3cn(C)c4ccccc34)n2)c(OC)cc1N(C)CCN(C)C [OSIMERTINIB]
Kd [1]: > 30 µM (inactive)
Kd [2]: > 30 µM (inactive)
Kd [3]: > 30 µM (inactive)
Kd [4]: > 30 µM (inactive)
Kd [5]: > 30 µM (inactive)
Kd [6]: > 30 µM (inactive)
Kd [7]: > 30 µM (inactive)
Kd [8]: > 30 µM (inactive)
Kd [9]: > 30 µM (inactive)

SMILES: COc1ccc2c(OCc3nnc4ccc(-c5ccccc5)nn34)ccnc2c1 [AMG-208]
Kd [1]: > 30 µM (inactive)
Kd [2]: > 30 µM (inactive)
Kd [3]: > 30 µM (inactive)
Kd [4]: > 30 µM (inactive)
Kd [5]: > 30 µM (inactive)
Kd [6]: > 30 µM (inactive)
Kd [7]: > 30 µM (inactive)
Kd [8]: > 30 µM (inactive)
Kd [9]: > 30 µM (inactive)

SMILES: CC(C)CC(=O)Nc1[nH]nc2c1CN(C(=O)C1CCN(C)CC1)C2(C)C [PHA-793887]
Kd [1]: > 30 µM (inactive)
Kd [2]: > 30 µM (inactive)
Kd [3]: > 30 µM (inactive)
Kd [4]: > 30 µM (inactive)
Kd [5]: > 30 µM (inactive)
Kd [6]: > 30 µM (inactive)
Kd [7]: 0.103 µM (active)
Kd [8]: > 30 µM (inactive)
Kd [9]: > 30 µM (inactive)

SMILES: C=CCn1c(=O)c2cnc(Nc3ccc(N4CCN(C)CC4)cc3)nc2n1-c1cccc(C(C)(C)O)n1 [ADAVOSERTIB]
Kd [1]: > 30 µM (inactive)
Kd [2]: > 30 µM (inactive)
Kd [3]: > 30 µM (inactive)
Kd [4]: > 30 µM (inactive)
Kd [5]: > 30 µM (inactive)
Kd [6]: > 30 µM (inactive)
Kd [7]: > 30 µM (inactive)
Kd [8]: > 30 µM (inactive)
Kd [9]: > 30 µM (inactive)

SMILES: Cn1cc(-c2[nH]c3cc(NC(=O)[C@H](N)C4CCCCC4)cc4c3c2C=NNC4=O)cn1
Kd [1]: 1.37 µM (active)
Kd [2]: > 30 µM (inactive)
Kd [3]: > 30 µM (inactive)
Kd [4]: > 30 µM (inactive)
Kd [5]: > 30 µM (inactive)
Kd [6]: > 30 µM (inactive)
Kd [7]: > 30 µM (inactive)
Kd [8]: > 30 µM (inactive)
Kd [9]: > 30 µM (inactive)

Now from value to compound:

Kd [1]: > 30 µM (inactive)
Kd [2]: > 30 µM (inactive)
Kd [3]: > 30 µM (inactive)
Kd [4]: > 30 µM (inactive)
Kd [5]: > 30 µM (inactive)
Kd [6]: > 30 µM (inactive)
Kd [7]: > 30 µM (inactive)
Kd [8]: > 30 µM (inactive)
Kd [9]: > 30 µM (inactive)
SMILES: COc1cccc2cc(-c3nc([C@H]4CC[C@H](C(=O)O)CC4)n4ncnc(N)c34)[nH]c12 [OSI-027]

Kd [1]: > 30 µM (inactive)
Kd [2]: > 30 µM (inactive)
Kd [3]: > 30 µM (inactive)
Kd [4]: > 30 µM (inactive)
Kd [5]: > 30 µM (inactive)
Kd [6]: > 30 µM (inactive)
Kd [7]: > 30 µM (inactive)
Kd [8]: > 30 µM (inactive)
Kd [9]: > 30 µM (inactive)
SMILES: Cc1ccc(C(=O)Nc2ccc(Oc3cc4cnn(C)c4cc3-c3cn[nH]c3)c(F)c2)c(=O)n1-c1ccc(F)cc1 [MERESTINIB]

Kd [1]: > 30 µM (inactive)
Kd [2]: > 30 µM (inactive)
Kd [3]: > 30 µM (inactive)
Kd [4]: > 30 µM (inactive)
Kd [5]: > 30 µM (inactive)
Kd [6]: > 30 µM (inactive)
Kd [7]: > 30 µM (inactive)
Kd [8]: > 30 µM (inactive)
Kd [9]: > 30 µM (inactive)
SMILES: CNC(=O)c1cccc(-c2ccc3c(N4CCOC[C@@H]4C)nc(N4CCOC[C@@H]4C)nc3n2)c1 [VISTUSERTIB]

Kd [1]: > 30 µM (inactive)
Kd [2]: > 30 µM (inactive)
Kd [3]: > 30 µM (inactive)
Kd [4]: > 30 µM (inactive)
Kd [5]: 1.29 µM (active)
Kd [6]: > 30 µM (inactive)
Kd [7]: > 30 µM (inactive)
Kd [8]: > 30 µM (inactive)
Kd [9]: > 30 µM (inactive)
SMILES: COc1cc(Nc2ncc(F)c(Nc3ccc4c(n3)N(COP(=O)(O)O)C(=O)C(C)(C)O4)n2)cc(OC)c1OC [FOSTAMATINIB]

Kd [1]: > 30 µM (inactive)
Kd [2]: > 30 µM (inactive)
Kd [3]: > 30 µM (inactive)
Kd [4]: > 30 µM (inactive)
Kd [5]: > 30 µM (inactive)
Kd [6]: > 30 µM (inactive)
Kd [7]: > 30 µM (inactive)
Kd [8]: > 30 µM (inactive)
Kd [9]: > 30 µM (inactive)
SMILES: NC(=O)c1ccc(N(C(N)=O)c2c(F)cccc2F)nc1-c1ccc(F)cc1F [VX-702]
